Columns and labels:
MCF-7 cells = experiment: Cell uptake of free Dox and Dox-loaded nanogels by confocal microscopy; assay type: cell-based; conditions: 20 μM Dox concentration, 3-4 h
Method: For further study, the cell uptake of both free Dox and Dox-loaded nanogels (20 μM Dox concentration) was monitored using confocal microscopy over time. Initial internalization of Dox was observed within 3 h for free Dox and NG3-Dox, but not until 4 h for NG1-Dox (FIG. 9c-g). […] This is presumably the reason that the two nanogels show similar toxicities.
Laser Scanning Confocal Microscopy: The laser confocal experiment was performed with MCF-7 cells. MCF-7 cells were cultured in T75 cell culture flask containing DMEM/F12 with 10% FBS supplement. The cells were seeded at 10,000 cells/100 μL in cover slip-bottomed Petri dishes and allowed to grow for 3 days at 37° C. in a 5% CO2 incubator. The cells in 2 mL of culture medium were treated with 200 μL of nanogels containing two dyes or doxorubicin and incubated at 37° C. for different time intervals before monitoring the cells by confocal microscopy.

HeLa cells [1] = experiment: Toxicity of PTX-loaded carriers, Alamar Blue assay; assay type: cell-based; conditions: 72 h, 10 μM PTX
Method: (§1) Selective delivery of chemotherapeutic drug. To test whether the observed target selectivity would translate into differential cell kill efficiency, the ligand-coated nanogels encapsulating a chemotherapeutic drug molecule, paclitaxel (PTX) were prepared. The PTX-loaded polymeric aggregates (polymer-PTX), NG (NG-PTX) and NG-RGD (NG-RGD-PTX) were added to MCF7 cells and HeLa cells and the extent of cell death was investigated after 72 h. […] This supports the hypothesis that the polymeric micellar aggregates have a leaky nature, which leads to free drug being translocated through the cellular membrane. […] This is consistent with the observed slow internalization of nanogels, which should result in a reduced amount of chemotherapeutic inside the cells.
(§2) Cell culture: The cell viabilities of the nanogels were tested with 293T cells. 293T cells were cultured in T75 cell culture flasks using Dulbecco's Modified Eagle Medium/Nutrient Mixture F-12 (DMEM/F12) with 10% fetal bovine serum (FBS) supplement. […] Cell viability was measured using the Alamar Blue assay with each data point measured in triplicate. Fluorescence measurements were made using the plate reader SpectraMax M5 by setting the excitation wavelength at 560 nm and monitoring emission at 590 nm on a black well plate. […] Cell death was measured by the Alamar Blue assay in triplicate.

MCF7 cells = experiment: Toxicity of PTX-loaded carriers, Alamar Blue assay; assay type: cell-based; conditions: MCF7, 72 h, 10 μM PTX
Method: as §1, §2

HeLa cells [2] = experiment: Intracellular delivery of DiI and FITC-β-gal by confocal microscopy; assay type: cell-based; conditions: without nanogel
Method: Intracellular delivery of DiI and β-gal was also tested. As the nanogels consist of biodegradable disulfide crosslinkers, the release of the complexed protein and encapsulated lipophilic molecule can be triggered upon exposure to glutathione (present at higher concentrations inside the cells (mM), compared to the extracellular concentration […]). To compare the release profile of these dual delivery systems, NG1-CRRR and NG2-CRRR containing DiI in its interior and complexed with FITC labeled β-gal, were added to HeLa cells with serum and without serum. In the case of cell internalization of both encapsulated DiI and FITC labeled protein, a yellow color would be observed due to the co-localization and overlay of both red and green fluorophores for DiI and FITC, respectively. If there is no internalization of the nanogel, no color could be observed.
Fluorescence distribution of DiI and FITC was observed over time by confocal fluorescence microscopy with simultaneous excitation of both dye molecules at 488 nm and 543 nm for FITC and DiI, respectively. As shown in FIGS. 33a and 33b, green and red emissions were observed when the cells were treated with the nanogel-protein complexes. […] The green fluorescence of the FITC (label for protein) and red fluorescence for DiI (encapsulated small molecule) appear uniformly distributed. […]

[3] = DLS size of NG-CRRR nanogels, β-gal and complexes; estimated numbers per complex; assay type: physicochemical
From the text: Also evaluated were the size change and charge alteration of the nanogel surface due to the complexation event using DLS and zeta potential measurements respectively.

## COc1cccc2c1C(=O)c1c(O)c3c(c(O)c1C2=O)C[C@@](O)(C(=O)CO)C[C@@H]3O[C@H]1C[C@H](N)[C@H](O)[C@H](C)O1 [free Dox, doxorubicin]
MCF-7 cells
  intracellular localization of Dox: significant accumulation in the nucleus

## CC(=O)O[C@H]1C(=O)[C@@]2(C)[C@H]([C@H](OC(=O)c3ccccc3)[C@]3(O)C[C@H](OC(=O)[C@H](O)[C@@H](NC(=O)c4ccccc4)c4ccccc4)C(C)=C1C3(C)C)[C@]1(OC(C)=O)CO[C@@H]1C[C@@H]2O [free PTX, paclitaxel]
HeLa cells [1]
  toxicity (cell death): highly toxic
MCF7 cells
  toxicity (cell death): highly toxic

## FITC-β-gal: β-gal functionalized with fluorescein
HeLa cells [2]
  intracellular delivery of protein alone: no fluorescence

## β-gal: β-galactosidase (pI: 4.8, from E. coli), the model protein
[3]
  hydrodynamic diameter: ~10 nm
HeLa cells [2]
  intracellular delivery of protein alone: not efficient
